Experiments:
[1] = biological target: T1, ShHTL7 (Striga hermonthica, UniProt A0A0M3PNA2); assay: ITC binding to ShHTL7; conditions: 3 mM KAR1 into 150 μM protein
T1 sequence (A0A0M3PNA2 1-271): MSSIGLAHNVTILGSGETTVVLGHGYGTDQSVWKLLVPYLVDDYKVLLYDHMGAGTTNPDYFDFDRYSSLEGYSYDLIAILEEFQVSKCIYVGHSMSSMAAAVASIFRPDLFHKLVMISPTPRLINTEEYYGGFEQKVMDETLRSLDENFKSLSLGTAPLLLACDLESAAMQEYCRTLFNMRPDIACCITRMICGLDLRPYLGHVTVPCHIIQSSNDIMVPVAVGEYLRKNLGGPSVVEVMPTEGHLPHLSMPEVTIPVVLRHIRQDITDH
Experimental: (§1) The binding assays were performed using a MicroCal iTC200 isothermal titration calorimeter (GE Healthcare). Prior to the ITC experiments, concentrated ShD14, ShHTL1, ShHTL4, and ShHTL7 were exchanged into a buffer consisting of 20 mM HEPES (pH 8.0) and 150 mM NaCl to remove dithiothreitol and were then adjusted to a final concentration of 150 μM. The sample cell was filled with protein solution (204 μL). Nineteen consecutive 2.0-μL aliquots of 3 mM KAR1 (3-methyl-2H-furo [2,3-c] pyran-2-one) were injected into a prepared protein solution at 150 s intervals at 20 °C. The first injection volume was 0.4 μL, and the observed thermal peak was excluded from the data analysis. A negative control was obtained by titrating 3 mM KAR1 into the buffer (20 mM HEPES, pH 8.0, 150 mM NaCl) in the same manner. Data fitting was performed in “one set of sites” mode, and KD values were calculated using Origin software provided by MicroCal.
(§2) Supplementary Figure 3. Binding analyses of ShHTLs and ShD14 with KAR1. The ITC
(§3) assays were performed by adding 3 mM KAR1 to 150 μM ShHTL1 (a), ShHTL4 (b), ShHTL7
(§4) (c), ShD14 (d) and AtHTL (e).
(§5) ShHTL1 and AtHTL were fitted using the MicroCal origin software with the “one binding site”
(§6) model. The ITC assays titrating KAR1 into ShHTL1 and AtHTL were repeated three times
(§7) independently (data not shown).

[2] = system: ShD14; assay: ITC binding to ShD14; design: species or system Striga hermonthica; conditions: 3 mM KAR1 into 150 μM protein
Experimental: as §1, §2, §3, §4, §5, §6, §7

[3] = biological target: ShHTL7 T190F/C194F (Striga hermonthica, UniProt A0A0M3PNA2, C194F/T190F); assay: ITC binding to ShHTL7 double mutation; conditions: 3 mM KAR1 into 150 μM mutant
Experimental: (§8) Supplementary Figure 8. Activity measurements of ShHTL7 mutants. (a-b), Binding analyses of the T190F/C194F double mutation (a) and L124F/T190F/C194F triple mutation (b) of ShHTL7 with KAR1 by ITC (shown in black). The ITC assays were performed by adding 3 mM KAR1 to 150 μM ShHTL7 mutants in the same manner as in Supplementary Figure 3. Results of titrating buffer to 150 μM ShHTL7 mutants are shown in red. The upper panel for each […]
(§9) injection (black squares). (c) YLG hydrolytic activity of ShHTL7 and its mutants. As described

[4] = biological target: ShHTL7 L124F/T190F/C194F (Striga hermonthica, UniProt A0A0M3PNA2, C194F/L124F/T190F); assay: ITC binding to ShHTL7 triple mutation; conditions: 3 mM KAR1 into 150 μM mutant
Experimental: as §8, §9

[5] = system: ShHTL3–ShMAX2 interaction; assay: Y2H assay ShHTL3-ShMAX2; format: cell-based, Striga hermonthica; conditions: 5 μM ligand
Excerpt: Full-length sequences of ShD14, ShHTL1, ShHTL3, ShHTL4, ShHTL7, and AtHTL were cloned into the pGBKT7 vector as bait (Clontech), and the coding regions of ShMAX2 and AtMAX2 were cloned into the pGADT7 vector as prey (Clontech). MAX2 was supposed to be unstable without ASK1. Therefore, AtASK1 was cloned into the N terminus of ShMAX2 and AtMAX2 with a 16-residue linker for co-expression. The bait and prey plasmids were co-transformed into the yeast (Saccharomyces cerevisiae) strain Y2HGold (Clontech) by the lithium acetate-mediated method. The presence of both plasmids was confirmed by growth on SD/-Leu/-Trp (-LT) plates. […] The plates were incubated for 5 days at 30 °C.

[6] = biological target: AtHTL–AtMAX2 interaction (Arabidopsis thaliana, UniProt Q9SZU7); conditions: pull-down, 50 μM ligand, western blotting
Experimental: and AtHTL were detected using an anti-GST antibody, as indicated by the black arrows. (b)
1/10, 1/20, 1/50, 1/100, 1/1000) of transformed yeast cells was plated on control medium (SD/-
Leu/-Trp; -LT) and selective medium (SD/-Leu/-Trp/-His/-Ade; -LTHA) in the absence or
(1 picture or pasted object on this page, not shown here)

Sequence of AtHTL–AtMAX2 interaction (Q9SZU7 whole entry): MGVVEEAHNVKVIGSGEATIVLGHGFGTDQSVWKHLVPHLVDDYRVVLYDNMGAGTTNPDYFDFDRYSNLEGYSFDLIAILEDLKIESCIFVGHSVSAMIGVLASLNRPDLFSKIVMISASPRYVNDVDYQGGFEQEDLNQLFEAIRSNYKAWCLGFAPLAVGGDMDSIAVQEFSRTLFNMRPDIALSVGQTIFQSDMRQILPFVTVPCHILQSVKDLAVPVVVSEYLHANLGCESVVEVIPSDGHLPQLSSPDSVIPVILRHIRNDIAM
Sequence of ShHTL7 T190F/C194F (A0A0M3PNA2 whole entry T190F/C194F): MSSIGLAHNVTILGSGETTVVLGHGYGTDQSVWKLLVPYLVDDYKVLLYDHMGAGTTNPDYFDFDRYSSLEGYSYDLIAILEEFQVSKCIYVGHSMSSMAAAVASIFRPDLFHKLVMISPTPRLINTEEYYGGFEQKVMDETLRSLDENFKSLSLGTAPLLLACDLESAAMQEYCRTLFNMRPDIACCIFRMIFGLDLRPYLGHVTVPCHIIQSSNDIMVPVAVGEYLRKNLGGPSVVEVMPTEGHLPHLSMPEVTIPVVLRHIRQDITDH
Sequence of ShHTL7 L124F/T190F/C194F (A0A0M3PNA2 whole entry L124F/T190F/C194F): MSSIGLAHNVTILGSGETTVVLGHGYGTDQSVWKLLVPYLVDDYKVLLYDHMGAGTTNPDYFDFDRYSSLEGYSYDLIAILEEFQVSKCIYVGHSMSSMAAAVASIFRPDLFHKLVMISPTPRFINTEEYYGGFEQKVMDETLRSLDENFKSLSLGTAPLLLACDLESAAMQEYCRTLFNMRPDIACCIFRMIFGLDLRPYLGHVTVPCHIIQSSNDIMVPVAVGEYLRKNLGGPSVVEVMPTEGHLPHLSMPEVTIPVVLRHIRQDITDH

## Cc1c2ccocc-2oc1=O [KAR1, 3-methyl-2H-furo [2,3-c] pyran-2-one]
[1]
  KAR1 binding ability of ShHTL7: no significant KAR1 binding ability
[2]
  KAR1 binding ability of ShD14: no significant KAR1 binding ability
[3]
  KAR1 binding by ShHTL7 T190F/C194F: able to bind to KAR1 weakly
[4]
  KAR1 binding by ShHTL7 L124F/T190F/C194F: able to bind to KAR1 weakly
[5]
  ligand-induced ShHTL3-ShMAX2 interaction: failed to interact with ShMAX2 in the presence of KAR1
[6]
  ligand effect on AtHTL-AtMAX2 interaction: did not interact with AtMAX2 in a KAR1-dependent manner

— PMC6158167 (Nature Communications, 2018)
